Test results: patent US5462861A, “Method for improving enzyme activities with noble gases” (American Air Liquide, Chicago Research Center, priority 1993, dated 1995)
“Also recorded” adds a separate entry of the source.

Columns and labels:
α-D-glucosidase = α-D-glucosidase activity under gas; assay type: biochemical; settings: FIG. 31
Experimental: Solution preparation: Optimized w/v solutions are prepared by diluting the enzyme (units/ml) and the substrate (μg/ml) in appropriate buffer (optimized pH and molarity for enzymes). The solutions are used for gas experiments at once to avoid loss of activity. Various enzyme and substrate concentrations and inhibitors may be employed. Physical parameters are varied as required. […] Gas-tight serum vials are filled with enzyme and solvent. Sufficient gas is consecutively bubbled in the cuvets and serum vials, with a 1-hr wait between injections to maximize equilibration of gas. All syringes and dead spaces are purged before filling with the appropriate gas. The amount of gas used has been measured sufficient to saturate the solution required. Spectrophotometric time-drive, reaction rate, and kinetic analyses: cuvets and serum vials are saturated with gas 40 minutes before the run. A gas-filled syringe is used to retrieve 0.5 ml of enzyme solution to avoid air contact. […] Changes in the rate or final equilibrium of the reaction versus ambient air are recorded. Comparison is also made with added oxygen, and with deoxygenation. Some samples are also prepared under pressure.

particulate sialidase = settings: Sandhoff et al, FEBS Letters 1976; cited from earlier work
[1] = Schreiner; independent of oxygen partial pressure; cited from earlier work
Tyrosinase [2] = test: Tyrosinase-L-tyrosine reaction, solution saturated with gas; assay type: biochemical, Mushroom
Experimental: (§1) Solution preparation: Optimized w/v solutions are prepared by diluting the enzyme (units/ml) and the substrate (μg/ml) in appropriate buffer (optimized pH and molarity for enzymes). The solutions are used for gas experiments at once to avoid loss of activity. Various enzyme and substrate concentrations and inhibitors may be employed. Physical parameters are varied as required.
(§2) Preparation of samples: Cuvets are filled with 2 ml of substrate solution by means of a gas-tight syringe. Gas-tight serum vials are filled with enzyme and solvent. Sufficient gas is consecutively bubbled in the cuvets and serum vials, with a 1-hr wait between injections to maximize equilibration of gas. All syringes and dead spaces are purged before filling with the appropriate gas. The amount of gas used has been measured sufficient to saturate the solution required.
(§3) Spectrophotometric time-drive, reaction rate, and kinetic analyses: cuvets and serum vials are saturated with gas 40 minutes before the run. A gas-filled syringe is used to retrieve 0.5 ml of enzyme solution to avoid air contact. The 0.5 ml syringe injections of enzyme are made simultaneously to effect a common starting time to for the samples. 7 gases (air, O2, N2, Ne, Ar, Kr, Xe) are run at various temperatures each (from 0° to 60° ). Changes in the rate or final equilibrium of the reaction versus ambient air are recorded. Comparison is also made with added oxygen, and with deoxygenation. Some samples are also prepared under pressure.
1. Solution preparation: 10% w/v solutions are prepared by diluting the enzyme (units/ml) and the substrate (μg/ml) in Sodium Phosphate buffer (pH 6.85, optimized pH for enzymes). The solutions are stored in refrigerator (0°-5° C.) and used for gas experiments within 2 or 3 days to avoid loss of activity.
6. Preparation of run samples: Acrylic cuvets are filled with 2 ml of substrate solution by means of a gas tight syringe. Gastight serum vials are filled with enzyme. 3×10 cc of gas are consecutively bubbled in the cuvets and serum vials, with a […] between injections. This represents a 10× displacement of dead volume while maximizing equilibration of gas. All syringes and dead spaces are purged before filling with the appropriate gas. After the third 10 cc injection, the cuvets and serum vials are left overnight under two 10 cc syringes filled with the appropriate gas in refrigerator at 0°-5° C.
8. Spectrophotometric runs: The cuvets and serum vials are filled with 10 cc of gas 40 min before the run. A gas-filled syringe is used to retrieve 0.5 ml of enzyme solution to avoid air contact. The 0.5 ml syringe injections of enzyme are made simultaneously to effect a common starting time t0 for the samples. Seven gases (air, O2, N2, Ne, Ar, Kr, Xe) are run at five temperatures each (15° C., 20° C., 25° C., 30° C., 35° C.). Changes in the rate or final equilibrium of the reaction versus ambient air are recorded.
The optimal conditions are [E]/[S] (100 μg/ml)/(100 μg/ml), the changes in absorbance being observed at 305 nm.
3×10 cc of gas are bubbled in the silicone-sealed cuvets and serum vials (T-3754, T-7755), with an interval of 20 min (at 0°-5°C.) between each gas injection.
a. The silicone-sealed cuvets are removed from the refrigerator 40 min before the experimental run, filled with 10 cc of gas and left at room temperature (26° C.) under two 10 cc syringes.
The 0.5 ml syringe injections of enzyme are made simultaneously to effect a common starting time t0 for the samples.
200 points, 18 s intervals 1 hr run

[3] = test system: phenylalanine ammonia lyase; test: Phenylalanine ammonia lyase activity under gas; assay type: biochemical; settings: FIG. 32
Experimental: as §1, §2, §3
(§4) In a complete experiment, an enzyme at optimal pH and buffering salt concentration is reacted with 5 substrate concentrations in solution with noble gas at 1 atm. […] Controls are also run after evacuation of solution by vacuum. The reaction is monitored colorimetrically in a scanning spectrophotometer in real time, and the signals are treated mathematically to obtain rate and yield differences. Sample numbers are constant and sufficient to ensure significance of results. All parameters are independently controlled and measured, and more complex experiments are occasionally carried out.

Phosphoglucose isomerase = Phosphoglucose isomerase (Homo sapiens, UniProt P06744); test: Phosphoglucose isomerase activity under gas; assay type: biochemical; settings: 25° C., FIG. 35
Experimental: as §1, §2, §3, §4

tyrosinase [4] = test: Oxygen addition experiment, tyrosinase; assay type: biochemical
Experimental: as §4

glucosidase = test system: glucosidase
Experimental: as §4

FS(F)(F)(F)(F)F [SF6, sulfur hexafluoride, reference compound]
effect on α-D-glucosidase (α-D-glucosidase): enhancement

FC(F)(F)C(Cl)Br (centres unmarked) [halothane]
effect on activity of particulate sialidase (particulate sialidase): enhance the activity

[N-]=[N+]=O [nitrous oxide]
inhibition per atmosphere of added gas [1]: 1.9 % inhibition per atmosphere
effect on activity of particulate sialidase (particulate sialidase): enhance the activity

O=O [oxygen, reference compound]
effect on tyrosinase-L-tyrosine reaction (Tyrosinase [2]; 15° C.): approximately the same effect
effect on tyrosinase-L-tyrosine reaction (Tyrosinase [2]; 20° C.): only a moderate inhibitory effect; also recorded: little effect; also recorded: no enhancing effect; also recorded: does not enhance
effect on tyrosinase-L-tyrosine reaction (Tyrosinase [2]; 30° C.): inhibitory effect; also recorded: no longer enhances; also recorded: no enhancing effect
temperature dependence of the effect on tyrosinase (Tyrosinase [2]; various temperatures (15-35° C.)): curves obtained with oxygen instead of air are identical; also recorded: saturates at 30 °C
effect on phenylalanine ammonia-lyase [3]: enhancement
effect on phosphoglucose isomerase (Phosphoglucose isomerase): inhibition
effect of oxygen on tyrosinase activity (tyrosinase [4]; addition of a small amount oxygen): enhanced tyrosinase activity slightly
maximum increase in activity of tyrosinase (tyrosinase [4]; addition of oxygen to air): 6%
effect of adding oxygen to glucosidase reactions (glucosidase): no observed effect
effect on α-D-glucosidase (α-D-glucosidase): enhancement
